Results taken from patent publication US20250152387A1, “COBALT-CHROMIUM ALLOY STENT AND DRUG ELUTING STENT” (AmsinoMed Medical Co., Ltd, priority 2022, published 2025).

Key:
[1] = test system: vascular endothelial cells (HUVECs); assay: CCK-8 cell viability assay on vascular endothelial cells; assay type: cell-based; settings: 24 h and 48 h
Protocol: The range of drug concentrations at which ATO and TAC were friendly to vascular endothelial cell viability was determined at the cellular level.
The changes in the cell viability of vascular endothelial cells (HUVECs) under the action of ATO, TAC and rapamycin (RAP) at different concentrations for 24 h and 48 h were studied by CCK-8 cell viability assay, respectively.

[2] = test system: vascular smooth muscle cells (HASMCs); assay: CCK-8 cell viability assay on vascular smooth muscle cells; assay type: cell-based; settings: different concentrations, 24 h and 48 h
Protocol: The range of drug concentrations at which ATO and TAC were friendly to vascular smooth muscle cell viability was determined at the cellular level.
The changes in the cell viability of vascular smooth muscle cells (HASMCs) under the action of ATO, TAC and rapamycin (RAP) at different concentrations for 24 h and 48 h were studied by CCK-8 cell viability assay, respectively.

[3] = test system: IL-6, IL-10 and TNF-α gene expression in HUVECs; assay: PCR of inflammatory factor gene expression in LPS-induced HUVECs; assay type: cell-based; settings: 10 nM; HUVECs induced with LPS 1 μg/ml for 6 h
Protocol: The range of effective concentrations at which TAC inhibited the inflammatory response of vascular endothelial cells was verified at the cellular level.
After induction of HUVECs with LPS at a concentration of 1 μg/ml for 6 h, the inhibitory effects of TAC at different concentrations on the inflammatory response of HUVECs were detected by PCR.

[4] = Drug release from coated stents soaked in PBS solution in a shaker; assay type: physicochemical; settings: at 1 d; release curve obtained by adjustment
Excerpt: The process of testing the release properties of tacrolimus of the present invention comprises: soaking drug stents in a PBS solution, placing the stents in a shaker (shaking speed of 80 r/min), and taking out the stents at the corresponding time points (1 d, 7 d, 14 d, 21 d, and 28 d) (at least 3 stents for each time point), and testing the concentration of tacrolimus. The content of tacrolimus can be tested using the detection method in “Determination of Tacrolimus Tablets by HPLC” (Lv, Yongchao, Song, Yucai; Journal of Pharmaceutical Research 2013 Vol. 32, No. 4, page 1).
For the drug release properties of the present invention, the release process comprises: soaking drug stents in a PBS solution, placing the stents in a shaker (shaking speed of 100 r/min), and taking out 5 ml of the solution at the corresponding time points (1 d, 7 d, 14 d, 21 d, and 28 d) (at least 3 stents for each time point) for testing. The release of the drug arsenic trioxide is detected using the method disclosed in “Preparation and the Release Characteristic in vitro of Arsenic Trioxide Albumin Nanospheres” (Zhou, Jie, Zeng, Fuqing, Gao, Xiang, Xie, Shusheng, Wei, Shuli, Chinese Journal of New Drugs, pages 54-57).

Structure (SMILES)	concentration with no significant effect on cell viability [1]	effect on the viability of vascular smooth muscle cells [2]	gene expression levels of cellular inflammatory factors IL-6, IL-10 and TNF-α [3]	tacrolimus released [4]
CO[C@H]1C[C@@H]2CC[C@@H](C)[C@@](O)(O2)C(=O)C(=O)N2CCCC[C@H]2C(=O)O[C@H]([C@H](C)C[C@@H]2CC[C@@H](O)[C@H](OC)C2)CC(=O)[C@H](C)/C=C(\C)[C@@H](O)[C@@H](OC)C(=O)[C@H](C)C[C@H](C)/C=C/C=C/C=C/1C [RAP, rapamycin]	≤ 100 nM			
C=CC[C@@H]1/C=C(\C)C[C@H](C)C[C@H](OC)[C@H]2O[C@@](O)(C(=O)C(=O)N3CCCC[C@H]3C(=O)O[C@H](/C(C)=C/[C@@H]3CC[C@@H](O)[C@H](OC)C3)[C@H](C)[C@@H](O)CC1=O)[C@H](C)C[C@@H]2OC [TAC, tacrolimus]	≤ 50 nM	no significant inhibitory effect	effectively reduce	≥ 40%
